From patent publication US20210330611A1, “THERAPY FOR NEUROLOGICAL DISEASES/DISORDERS” (priority 2020, published 2021)
Where two headings read alike, the source gives them in different places.

Experiments:
[1] = tested on: fibrin-induced microglia activation; experiment: Image-based assay of fibrin-induced microglia activation (HTS and dose response); format: cell-based, rat; details: for inhibition at 10 µM: read-out: Fibrin % inhibition
[2] = tested on: LPS-induced microglia activation; experiment: Image-based assay of LPS-induced microglia activation (HTS and dose response); format: cell-based, rat; details: for inhibition at 10 µM: read-out: LPS % inhibition
[3] = tested on: fibrin- and LPS-induced microglia activation; experiment: cells; format: cell-based, rat
[4] = tested on: primary rat microglia; experiment: Cell toxicity (dead cells, size <150 μm2) in LPS assay
[5] = tested on: primary rat microglia; experiment: Cell toxicity (dead cells, size <150 μm2) in coated fibrin (cFib) assay;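 also: share of dead cells sized under 150 µm2 at 10 µM in fibrin-stimulated microglia HTS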
[6] = Rattus norvegicus, Microglia, primary microglia HTS, fibrin stimulation, activation = cell size >800 μm2
[7] = Rattus norvegicus, Microglia, 48 h, primary microglia HTS, LPS stimulation, activation = cell size >800 μm2
[8] = quadrant by fibrin and LPS inhibition in HTS of 1907 compounds
[9] = primary microglia HTS, LPS stimulation, toxicity = cell size <150 μm2
[10] = primary microglia HTS, fibrin stimulation, toxicity = cell size <150 μm2
[11] = Rattus norvegicus, Microglia, primary microglia HTS, fibrin stimulation, increased cell size (>800 μm^2) as marker of activation
[12] = Rattus norvegicus, Microglia, 48 h, primary microglia HTS, LPS stimulation, increased cell size (>800 μm^2) as marker of activation
[13] = primary microglia HTS, LPS stimulation, decreased size (<150 μm^2) as marker of toxicity
[14] = primary microglia HTS, fibrin stimulation, decreased size (<150 μm^2) as marker of toxicity

Compound	inhibition at 10 µM [1, 6] [%]	inhibition at 10 µM [2, 7] [%]	Quadrant (FIG. 5b) [3, 8]	LPS % cell toxicity [4, 9] [%]	Fibrin % cell toxicity [5, 10] [%]	inhibition at 10 µM [1, 11] [%]	inhibition at 10 µM [2, 12] [%]	LPS % cell toxicity [4, 13] [%]	Fibrin % cell toxicity [5, 14] [%]	other results
CCN(CC)CCNC(=O)c1cc(S(C)(=O)=O)ccc1OC [Tiapride]										inhibition at 10 µM ([1]; Rattus norvegicus, Microglia, primary microglia HTS, 10 μM, fibrin-stimulated, cell size >800 μm^2 as marker of activation): -18%; inhibition at 10 µM ([2]; Rattus norvegicus, Microglia, primary microglia HTS, 10 μM, LPS-stimulated, cell size >800 μm^2 as marker of activation): 6%; Quadrant (FIG. 5b) ([3]; HTS of 1907 compounds, quadrant by fibrin and LPS inhibition): Q4; LPS % cell toxicity ([4]; primary microglia HTS, 10 μM, LPS assay, cell size <150 μm^2 as marker of toxicity): 0%; Fibrin % cell toxicity ([5]; primary microglia HTS, 10 μM, fibrin assay, cell size <150 μm^2 as marker of toxicity): 0%
CC(C(=O)O)c1ccc(N2Cc3ccccc3C2=O)cc1 (stereo not drawn) [Indoprofen]	-34	18	Q4	0	1					
CCCCC[C@H](O)/C=C/[C@H]1[C@H](O)CC(=O)[C@@H]1CCCCCCC(=O)O [Alprostadil]			Q2			100	87	3	9	
CC(C)(Oc1ccc(Cl)cc1)C(=O)O [Clofibric Acid]										inhibition at 10 µM ([1]; Rattus norvegicus, Microglia, primary HTS, 10 μM, fibrin-stimulated primary microglia): -27%; inhibition at 10 µM ([2]; Rattus norvegicus, Microglia, primary HTS, 10 μM, LPS-stimulated primary microglia): 15%; Quadrant (FIG. 5b) ([3]; primary HTS, 10 μM): Q4; LPS % cell toxicity ([4]; primary HTS, 10 μM, LPS assay, dead cells size <150 μm2): 0%; Fibrin % cell toxicity ([5]; primary HTS, 10 μM, fibrin assay, dead cells size <150 μm2): 1%
COc1ccc(C(=O)c2ccccc2)c(O)c1 [Oxybenzone]			Q4			-15	12	0	0	
CC(=O)OCC(=O)[C@@]1(O)CC[C@H]2[C@@H]3CCC4=CC(=O)C=C[C@]4(C)[C@H]3[C@@H](O)C[C@@]21C [Prednisolone acetate, reference compound]			Q2			109	111	6	4	IC50 ([1]; Rattus norvegicus, Microglia, Table 7, read-out: fib_IC50): 3 nM; IC50 ([2]; Rattus norvegicus, Microglia, Table 7, read-out: LPS_IC50): 3 nM; Quadrant (FIG. 5b) ([3]; Table 2, screen at 10 μM): Q2; Activity ([3]; Table 7, fib = fibrin, LPS, tox = toxicity): fib/LPS
C[C@]12CCC(=O)C(O)=C1CC[C@@H]1[C@@H]2CC[C@]2(C)C(=O)CC[C@@H]12 [Formestane]	-6	10	Q4	0	1					
CC(C)CC(N)=O [Isovaleramide]	-10	1	Q4	0	1					
CC(O)CN1CCN(CC(=O)[O-])CCN(CC(=O)[O-])CCN(CC(=O)[O-])CC1.[Gd+3] (stereo not drawn) [Gadoteridol]			Q4	0	1					Fibrin % inhibition ([1]; primary microglia HTS, fibrin stimulation, activation = cell size >800 μm2): −18%; LPS % inhibition ([2]; primary microglia HTS, LPS stimulation, activation = cell size >800 μm2): 15%
COc1ccc(C(=O)c2ccc(C)cc2)c(O)c1 [Mexeneone]			Q4					0	1	Fibrin % inhibition ([1]; primary microglia HTS, fibrin stimulation, increased cell size (>800 μm^2) as marker of activation): −8%; LPS % inhibition ([2]; primary microglia HTS, LPS stimulation, increased cell size (>800 μm^2) as marker of activation): 9%
